Test results taken from PMC5589937 (Scientific Reports, 2017).
Where two headings read alike, the source gives them in different places.

T1: hGIIE N21W (Homo sapiens, UniProt Q9NZK7, N40W)
T1 construct: The gene encoding for hGIIE protein without signal peptide was amplified by PCR; made in house; host or cells: Pichia pastoris X33 (vector pGAPZαA)
T1 sequence (Q9NZK7 20-142 N40W): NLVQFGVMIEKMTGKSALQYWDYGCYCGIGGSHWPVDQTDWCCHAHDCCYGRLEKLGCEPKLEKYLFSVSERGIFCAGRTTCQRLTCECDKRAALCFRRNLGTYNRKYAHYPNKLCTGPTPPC

T2: hGIIE N21M (Homo sapiens, UniProt Q9NZK7, N40M)
T2 construct: The gene encoding for hGIIE protein without signal peptide was amplified by PCR; made in house; host or cells: Pichia pastoris X33 (vector pGAPZαA)
T2 sequence (Q9NZK7 20-142 N40M): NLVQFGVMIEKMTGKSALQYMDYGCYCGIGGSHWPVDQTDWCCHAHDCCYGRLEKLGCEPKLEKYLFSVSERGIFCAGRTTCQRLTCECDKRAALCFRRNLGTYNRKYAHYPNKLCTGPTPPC

T3: hGIIE F97L (Homo sapiens, UniProt Q9NZK7, F116L)
T3 construct: The gene encoding for hGIIE protein without signal peptide was amplified by PCR; made in house; host or cells: Pichia pastoris X33 (vector pGAPZαA)
T3 sequence (Q9NZK7 20-142 F116L): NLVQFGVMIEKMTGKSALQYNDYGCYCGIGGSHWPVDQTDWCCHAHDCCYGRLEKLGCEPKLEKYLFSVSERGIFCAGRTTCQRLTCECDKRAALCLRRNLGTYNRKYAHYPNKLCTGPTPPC

T4: hGIIE F5L_F97L (Homo sapiens, UniProt Q9NZK7, F116L/F24L)
T4 construct: The gene encoding for hGIIE protein without signal peptide was amplified by PCR; made in house; host or cells: Pichia pastoris X33 (vector pGAPZαA)
T4 sequence (Q9NZK7 20-142 F24L/F116L): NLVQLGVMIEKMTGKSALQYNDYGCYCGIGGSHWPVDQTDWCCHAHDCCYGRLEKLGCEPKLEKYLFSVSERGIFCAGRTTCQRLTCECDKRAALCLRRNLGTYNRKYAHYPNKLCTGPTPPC

T5: WT hGIIE (Homo sapiens, UniProt Q9NZK7)
T5 construct: The gene encoding for hGIIE protein without signal peptide was amplified by PCR; made in house; host or cells: Pichia pastoris X33 (vector pGAPZαA)
T5 sequence (Q9NZK7 20-142): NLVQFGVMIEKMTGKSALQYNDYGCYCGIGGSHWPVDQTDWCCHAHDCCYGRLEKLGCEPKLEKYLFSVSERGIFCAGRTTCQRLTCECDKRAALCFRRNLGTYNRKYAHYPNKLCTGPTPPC

T6: hGIIE N21G (Homo sapiens, UniProt Q9NZK7, N40G)
T6 construct: The gene encoding for hGIIE protein without signal peptide was amplified by PCR; made in house; host or cells: Pichia pastoris X33 (vector pGAPZαA)
T6 sequence (Q9NZK7 20-142 N40G): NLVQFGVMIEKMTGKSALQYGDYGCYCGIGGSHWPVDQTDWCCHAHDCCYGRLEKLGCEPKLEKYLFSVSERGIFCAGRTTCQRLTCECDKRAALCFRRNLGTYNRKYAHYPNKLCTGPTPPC

T7: hGIIE (Homo sapiens, UniProt Q9NZK7)
T7 construct: The gene encoding for hGIIE protein without signal peptide was amplified by PCR; made in house; host or cells: Pichia pastoris X33 (vector pGAPZαA)
T7 sequence (Q9NZK7 20-142): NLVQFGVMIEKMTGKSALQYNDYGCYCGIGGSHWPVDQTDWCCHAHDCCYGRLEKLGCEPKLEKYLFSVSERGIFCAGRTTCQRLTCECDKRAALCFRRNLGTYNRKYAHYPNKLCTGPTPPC

T8: hGIIE F5L (Homo sapiens, UniProt Q9NZK7, F24L)
T8 construct: The gene encoding for hGIIE protein without signal peptide was amplified by PCR; made in house; host or cells: Pichia pastoris X33 (vector pGAPZαA)
T8 sequence (Q9NZK7 20-142 F24L): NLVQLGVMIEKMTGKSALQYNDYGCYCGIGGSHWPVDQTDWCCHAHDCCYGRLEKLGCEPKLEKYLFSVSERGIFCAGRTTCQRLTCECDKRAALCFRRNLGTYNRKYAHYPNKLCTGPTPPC

T9: hGIIE G6N (Homo sapiens, UniProt Q9NZK7, G25N)
T9 construct: The gene encoding for hGIIE protein without signal peptide was amplified by PCR; made in house; host or cells: Pichia pastoris X33 (vector pGAPZαA)
T9 sequence (Q9NZK7 20-142 G25N): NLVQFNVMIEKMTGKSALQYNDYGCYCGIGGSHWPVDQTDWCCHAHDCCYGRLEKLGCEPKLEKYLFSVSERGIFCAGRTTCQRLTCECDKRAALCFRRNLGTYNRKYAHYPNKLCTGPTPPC

T10: hGIIE G6H (Homo sapiens, UniProt Q9NZK7, G25H)
T10 construct: The gene encoding for hGIIE protein without signal peptide was amplified by PCR; made in house; host or cells: Pichia pastoris X33 (vector pGAPZαA)
T10 sequence (Q9NZK7 20-142 G25H): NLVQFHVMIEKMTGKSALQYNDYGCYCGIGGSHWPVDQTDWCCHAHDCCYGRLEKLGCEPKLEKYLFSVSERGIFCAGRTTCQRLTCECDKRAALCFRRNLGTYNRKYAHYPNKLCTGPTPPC


Experiments:
hGIIE N21W = biological target: T1, hGIIE N21W; test: Inhibition of hGIIE mutant N21W, sPLA2 assay kit; assay type: biochemical; details: N21W enzyme 30 µM; mean ± s.d., n=2; read-out: IC50 against hGIIE N21W
Method: (§1) Enzymatic Kinetics of hGIIE assay was carried out using sPLA2 Assay kit (Cayman, Ann Arbor, MI, USA). Substrate of this assay is 1, 2-Diheptanoyl Thio-phosphatidylcholine (DTPC). After hydrolysis of the thio ester bond in the sn-2 position by phospholipase A2, free thiols are detected using 5, 5-dithio-bis-nitrobenzoic acid (DTNB). Activity assay was carried out on a 96-well plate at 25 °C. 10 µL DTNB, 10 µL protein sample and 5 µL buffer (25 mM Tris-HCl, pH 7.5, 10 mM CaCl2, 100 mM KCl, 0.3 mM Triton X-100) were pooled in the well, then the reaction was initiated by adding 200 µL substrate solution to the well simultaneously. Absorbance at 414 nm was measured every 1 min for 15 min. […] Protein concentration was adjusted to ensure the absorbance increase of 0.01 to 0.1 per minute. Curve was fitted to Michaelis-Menten equation and Lineweaver-Burk plot for the estimation of Km and Vmax using GraphPad Prism 5, Kcat was calculated by Vmax/enzyme concentration.
(§2) Inhibition of wild type (WT) and mutated hGIIE was analyzed using sPLA2 assay kit as mentioned above. In the assay system, 5 µL assay buffer was replaced by 5 µL of the inhibitor. Different concentrations of compound 8, 14, 24, Me-Indoxam, and LY311727 were prepared. The final concentration of enzyme used per well are as following: WT: 6.42 µM; F5L: 6.4 µM; F97L: 10.48 µM; F5L_F97L: 6.73 µM; G6H: 10.91 µM; G6N: 7.56 µM; N21G: 32.86 µM; N21M: 22.14 µM; N21W: 30 µM. Control reactions without enzyme or inhibitor were carried out. Percent inhibition of every well were calculated. Curve was fitted to the log (inhibitor)-response variable slope and IC50 was calculated using GraphPad Prism 5 (GraphPad).

hGIIE N21M = biological target: T2, hGIIE N21M; test: Inhibition of hGIIE mutant N21M, sPLA2 assay kit; assay type: biochemical; details: N21M enzyme 22.14 µM; mean ± s.d., n=2; read-out: IC50 against hGIIE N21M
Method: as §1, §2

hGV = details: cited from earlier work
hGIIE F97L = biological target: T3, hGIIE F97L; test: Inhibition of hGIIE mutant F97L, sPLA2 assay kit; assay type: biochemical; details: F97L enzyme 10.48 µM; mean ± s.d., n=2; read-out: IC50 against hGIIE F97L
Method: as §1, §2

hGIIE F5L_F97L = biological target: T4, hGIIE F5L_F97L; test: Inhibition of hGIIE double mutant F5L_F97L, sPLA2 assay kit; assay type: biochemical; details: F5L_F97L enzyme 6.73 µM; mean ± s.d., n=2; read-out: IC50 against hGIIE F5L_F97L
Method: as §1, §2

WT hGIIE = biological target: T5, WT hGIIE; test: Inhibition of wild type hGIIE, sPLA2 assay kit (DTPC substrate, DTNB detection); assay type: biochemical; details: WT enzyme 6.42 µM per well; mean ± s.d., n=2; read-out: IC50 against WT hGIIE
Method: as §1, §2

hGIIE N21G = biological target: T6, hGIIE N21G; test: Inhibition of hGIIE mutant N21G, sPLA2 assay kit; assay type: biochemical; details: N21G enzyme 32.86 µM; mean ± s.d., n=2; read-out: IC50 against hGIIE N21G
Method: as §1, §2

hGIIE = biological target: T7, hGIIE; details: cited from earlier work
hGIIE F5L = biological target: T8, hGIIE F5L; test: Inhibition of hGIIE mutant F5L, sPLA2 assay kit; assay type: biochemical; details: F5L enzyme 6.4 µM; mean ± s.d., n=2; read-out: IC50 against hGIIE F5L
Method: as §1, §2

hGIIE G6N = biological target: T9, hGIIE G6N; test: Inhibition of hGIIE mutant G6N, sPLA2 assay kit; assay type: biochemical; details: G6N enzyme 7.56 µM; mean ± s.d., n=2; read-out: IC50 against hGIIE G6N
Method: as §1, §2

hGIIE G6H = biological target: T10, hGIIE G6H; test: Inhibition of hGIIE mutant G6H, sPLA2 assay kit; assay type: biochemical; details: G6H enzyme 10.91 µM; mean ± s.d., n=2; read-out: IC50 against hGIIE G6H
Method: as §1, §2

hGIID = system: hGIID; set-up: method as in PMID 15028265; details: cited from earlier work
hGX = details: cited from earlier work
hGIB = system: hGIB; set-up: method as in PMID 16686528; details: cited from earlier work
severe sepsis = system: severe sepsis; set-up: method as in PMID 16096451; details: trials terminated; experiment group; cited from earlier work
hGIIA = details: measure not given; read-out: potency to hGIIA; cited from earlier work
rheumatoid arthritis = system: rheumatoid arthritis; set-up: method as in PMID 15742431; details: clinically tested; cited from earlier work
cardiovascular diseases = details: treatment of cardiovascular diseases; cited from earlier work
[1] = substrate: CCCCCC(=O)OC[C@H](COP(=O)([O-])OCC[N+](C)(C)C)OC(=O)CCCCC; test: purified protein, by the assay type; details: other: ITC, 25 °C, 2 µM hGIIE, pH 7.5, 10 mM CaCl2
Method: Reactions were performed with Microcal ITC200 (GE Healthcare) at 25 °C, and data were collected and analyzed by ORIGIN. A multiple injection kinetic assay was conducted using a stirring speed of 750 rpm. 2 µM protein hGIIE (200 µL) in the reaction cell was titrated with 13 × 3 µL injection of phospholipid (10–50 mM) using a 120 s delay between successive injections. The apparent enthalpy (ΔH) for the hydrolysis of phospholipid by hGIIE was determined in a separate experiment in which 1 × 6 µL injections of phospholipid into 2 µM protein hGIIE (200 µL) was made using spacing 1800 s. Buffer solution was carefully matched in both the ligand and enzyme solutions. Mother liquor of phospholipids including DHPG (in water), DHPC (in DMSO), DHPE (in DMSO) (Avanti) with 200 mM concentration were prepared. Working buffer (20 mM DHPG, 50 mM DHPC, 10 mM DHPE) is prepared by diluting the mother liquor with buffer 100 mM Tris, 150 mM KCl, 10 mM CaCl2, pH 7.5.

Molecule | IC50 (hGIIE N21W) [nM] | IC50 (hGIIE N21M) [nM] | IC50 (hGV) [nM] | IC50 (hGIIE F97L) [nM] | IC50 (hGIIE F5L_F97L) [nM] | IC50 (WT hGIIE) [nM] | IC50 (hGIIE N21G) [nM] | IC50 (hGIIE; read-out: IC50 hGIIE) [nM] | IC50 (hGIIE F5L) [nM] | IC50 (hGIIE G6N) [nM] | IC50 (hGIIE G6H) [nM] | also measured
Cc1c(C(=O)C(N)=O)c2c(OCC(=O)O)cccc2n1Cc1cccc2ccccc12 [Compound 8] | 1270 ± 220 | 1050 ± 20 | < 330 | 480 ± 30 | 250 ± 40 | 280 ± 30 | 630 ± 20 | < 25 | 250 ± 60 | 630 ± 50 | 3760 ± 860 | 
Cc1c(C(=O)C(N)=O)c2c(OCC(=O)O)cccc2n1Cc1cccc(Br)c1 [Compound 14] | 1940 ± 220 | 840 ± 30 | < 330 | 280 ± 70 | 300 ± 20 | 220 ± 20 | 1730 ± 50 | < 25 | 130 ± 40 | 230 ± 30 | 880 ± 310 | 
Cc1c(C(=O)C(N)=O)c2c(OCC(=O)O)cccc2n1Cc1ccccc1C(F)(F)F [Compound 24] | 1870 ± 180 | 830 ± 220 | < 330 | 250 ± 20 | 140 ± 10 |  | 2390 ± 400 | < 25 | 110 ± 10 | 270 ± 30 | 540 ± 30 | decreased effect against hGIID in comparison to hGIIE (hGIID): over 100 fold; decreased effect against hGX than hGIIE (hGX): about 50 fold
CCc1c(CC(N)=O)c2cc(OCCCP(=O)(O)O)ccc2n1Cc1ccccc1 [LY311727] | 18000 ± 1370 | 5980 ± 400 |  | 1120 ± 20 | 1000 ± 220 |  | 5130 ± 1070 |  | 1790 ± 140 | 3070 ± 420 | 14300 ± 390 | 
CCc1c(C(=O)C(N)=O)c2c(OCC(=O)O)cccc2n1Cc1ccccc1 [LY315920, Varespladib] |  |  | 500 |  |  |  |  |  |  |  |  | IC50 (hGIB): 750 nM; IC50 (hGX): 75 nM
CCc1c(C(=O)C(N)=O)c2c(OCC(=O)[O-])cccc2n1Cc1ccccc1.[Na+] [LY315920: Na] |  |  |  |  |  |  |  |  |  |  |  | outcome of clinical trials in severe sepsis (severe sepsis): higher mortality rate
Cc1c(C(=O)C(N)=O)c2c(OCC(=O)O)cccc2n1Cc1ccccc1-c1ccccc1 [Me-Indoxam] | 1440 ± 130 | 880 ± 10 |  | 260 ± 20 | 240 ± 30 | 210 ± 10 | 1840 ± 30 |  | 160 ± 10 | 140 ± 20 | 300 ± 20 | IC50 (hGIIA): 30 nM; IC50 (hGIIE; measure not given, read-out: potency to hGIIE): 8 nM
CCc1c(C(=O)C(N)=O)c2c(OCC(=O)OC)cccc2n1Cc1ccccc1 [Varespladib methyl] |  |  |  |  |  |  |  |  |  |  |  | efficacy in treatment of rheumatoid arthritis (rheumatoid arthritis): ineffective; adverse effects in phase three trials (cardiovascular diseases): increased events of cardiovascular mortality, heart attack, and stroke
hGIIE (Homo sapiens) (protein) NLVQFGVMIEKMTGKSALQYNDYGCYCGIGGSHWPVDQTDWCCHAHDCCYGRLEKLGCEPKLEKYLFSVSERGIFCAGRTTCQRLTCECDKRAALCFRRNLGTYNRKYAHYPNKLCTGPTPPC |  |  |  |  |  |  |  |  |  |  |  | Km [1]: 5.52 ± 1.00 mM; kcat [1]: 3.22 ± 0.30 s⁻¹
